Consider three compounds from US11229680B2, “Autophagy inhibitors” (The Hong Kong University of Science and Technology, priority 2017, dated 2022).

pKd: −log10 of the molar value. Where “and” joins values, the source holds several entries; their conditions need not be identical. Equal values may be shown once.

Test [1] has as its system GABARAP. The test can be described thus: ITC binding to GABARAP. Also on record: species or system human.
For test [2], the system named is SQST-1::GFP. Briefly: SQST-1::GFP aggregate accumulation in C. elegans expressing the peptides. The format is in vivo. An excerpt: We next determined whether the AnkB WT peptide blocks autophagy in C. elegans. Autophagy is required for degradation of a variety of protein substrates, including the C. elegans p62 homolog SQST-1 during development (Tian et al., 2010). In the wild type animals, SQST-1::GFP is weakly expressed and diffusely localized in the cytoplasm, while numerous SQST-1 aggregates accumulate in autophagy mutants (Tian et al., 2010). The AnkB WT peptide fused with the Cherry reporter (Cherry::AnkB WT) or Cherry::AnkB WR was expressed under the control of the nfya-1 promoter, which is expressed ubiquitously from the embryonic to adult stages. The expression plasmids were injected into animals carrying integrated SQST-1::GFP reporter (bpIs151) and transgenic lines were obtained and analyzed.
Similarly, we also tested the blocking effect of AnkG peptides in C. elegans. […] This observation is somewhat different from that in mammalian heterologous cells. This may be explained by the different roles of the two families in different organisms. In mammal, p62 degradation is dependent on LC3 but not GABARAP (Maruyama et al., 2014), so blocking GABARAP binding has minimal effect on p62 degradation. However, in C. elegans, LGG-1 acts upstream to LGG-2 (Manil-Segalen et al., 2014; Wu et al., 2015), so blocking either of them will lead to defect in SQST-1 degradation.
Although a large collection of autophagy mutants were isolated from genetic screens (Tian et al., 2010), assays to inhibit autophagy activity in a spatiotemporal manner are not available. We investigated whether the AnkB peptide can block autophagy in a tissue- and temporal-specific manner. The AnkB peptide was expressed under the control of tissue-specific promoters, including the promoter of myo-3 for body wall muscle cells, y37A1B.5 for hypodermal cells and vha-6 for intestinal cells. The expression constructs were injected into animals carrying the corresponding tissue-specific SQST-1::GFP expression integrated lines.
We also examined whether the AnkB peptide can impair autophagy in a temporal control manner. The expression of AnkB WT was driven by the promoter of col-19, which is expressed in hypodermal cells from the young adult stage onwards.

In test [3] the test system is p62-positive puncta in COS7 cells. Briefly: p62-positive puncta in starved COS7 cells. Type of test: cell-based. As to conditions: starvation; for p62-positive puncta versus mCherry vector control: COS7 cells expressing mCherry-tagged peptide. An excerpt: We further quantified the level of p62, one of the best studied selective autophagy substrates, to monitor the autophagic flux in COS7 cells expressing various AnkB/G LIR peptides under the starvation condition (Klionsky et al., 2016; Mizushima et al., 2010). Upon autophagy induction, p62 forms aggregates via its LIR motif-mediated interactions to Atg8s and subsequent incorporation into autophagosomes (Bjorkoy et al., 2005; Pankiv et al., 2007). Only a relatively low and steady level of p62 aggregates is formed if autophagy flux is normal (i.e. p62-positive autophagosomes are steadily cleared by fusing with lysosomes; (Bjorkoy et al., 2005)), and this is indeed the case when cells were expressed with the mCherry vector control (FIG. 7F). […] This is consistent with a previous siRNA-based study showing that knockdown of LC3 but not GABARAP causes p62 accumulation in COS7 cells (Maruyama et al., 2014). Taken together, the above cell-based assays reinforce our earlier conclusion derived from biochemical and structural studies, that the AnkB WT peptide can function as potent autophagy inhibitor by targeting all members of the Atg8 family and the AnkG WT or ER peptides can selectively target the GABARAPs and spare the LC3s.

The subject of test [4] is LC3-positive puncta in COS7 cells. Briefly: LC3-positive puncta in starved COS7 cells. Type of test: cell-based. Particulars: COS7 cells over-expressing mCherry-tagged peptide, nutrients deprivation. An excerpt:
(§1) We used the well-established cultured COS7 cells for assessing autophagy inhibitions by the AnkB/G LIR peptides over-expressed in the cells. We quantified the numbers of endogenous LC3- or GABARAP-positive puncta, which represent LC3 or GABARAP-containing autophagic structures, as readouts to quantify autophagy inhibitions (Klionsky et al., 2016; Mizushima et al., 2010). After nutrients deprivation, obvious accumulations of LC3- or GABARAP-positive puncta could be observed in cells over-expressing mCherry only, indicating induction of autophagy by starvation (FIG. 6C6&E6). […] In contrast, expression of the mCherry-AnkB WR peptide had no impact on the LC3- or GABARAP-puncta numbers (i.e. with the same puncta numbers as expressing the mCherry vector control; FIG. 6C-F).

For test [5], the system named is GABARAP-positive puncta in COS7 cells. Briefly: GABARAP-positive puncta in starved COS7 cells. Type of test: cell-based. Particulars: COS7 cells over-expressing mCherry-tagged peptide, nutrients deprivation.
Description: as §1

The target of test [6] is LC3s (LC3A, LC3B, LC3C) (Homo sapiens). The test can be described thus: ITC binding to LC3s.
For test [7], the system named is LC3s (LC3A, LC3B, LC3C). Particulars: recently identified LC3 binding sequence (Cheng et al., 2016; Olsvik et al., 2015); cited from earlier work.
Test [8] concerns the target LGG-1 (Caenorhabditis elegans, UniProt Q09490). Briefly: ITC binding to purified LGG-1. Also on record: species or system C. elegans. The text has this: (§2) C. elegans provides an ideal platform to study autophagy and especially to investigate roles of different members of Atg8 in autophagy, because worms contain both GABARAP and LC3 subfamily Atg8s and yet simple enough with one gene for each subfamily (worm lgg-1 and lgg-2 are […] of GABARAP and LC3, respectively). It has also been shown earlier on that lgg-1 and lgg-2 act non-redundantly in autophagy (Wu et al., 2015). Prior to performing autophagy assays in worms, we measured the bindings of various AnkB/G LIR peptides to purified LGG-1 and LGG-2 using the same method as we have described for FIGS. 1&3.

In test [9] the target is T1, LGG-2 (Caenorhabditis elegans, UniProt Q23536).
T1 sequence (Q23536 1-130): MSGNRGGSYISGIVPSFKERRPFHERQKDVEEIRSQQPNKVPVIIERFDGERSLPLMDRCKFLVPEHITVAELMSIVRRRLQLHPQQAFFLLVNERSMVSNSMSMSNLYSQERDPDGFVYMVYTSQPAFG
The test can be described thus: ITC binding to purified LGG-2. On the set-up: species or system C. elegans.
Description: as §2

Test [10] has as its target LC3s (LC3A, LC3B, LC3C). Briefly: ITC binding to LC3s. Also on record: species or system human. Particulars: LC3A, LC3B, LC3C.
Where [11] appears, read: mCherry::AnkG peptides, embryonic stage (FIG. 10B-D).

Chain of LGG-1 (Q09490 1-116 limits assumed): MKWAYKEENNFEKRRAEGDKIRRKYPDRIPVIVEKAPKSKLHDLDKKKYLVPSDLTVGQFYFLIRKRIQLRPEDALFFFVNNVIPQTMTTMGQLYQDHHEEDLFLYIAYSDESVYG

On to “AnkG W1989R: AnkG LIR with Trp1989 substituted by Arg; negative and specificity control (PEDDRTEFSSEEIREARQAAASHAPS; AnkG W1989R rat recombinant peptide, prepared in the lab)”, for which the “binding to GABARAP (in words)” value in [1] (ITC) is given as “dramatic weakening”. Further, the “SQST-1::GFP aggregates” value in [2] (setting [11]) is listed as “no SQST-1::GFP aggregates”. For the same compound, the “p62-positive puncta versus mCherry vector control” value in test [3] was “neither of the AnkB/G WR peptides could induce p62-positive puncta increase”. The LC3-positive puncta number result in [4] is “did not see any noticeable changes”. Besides, the GABARAP-positive puncta number entry in [5] was “did not see any noticeable changes”. In addition, in test [6], the “binding to LC3 (in words)” value is “dramatic weakening”.

For the compound “FYCO1 LIR: recently identified LC3 binding sequence from FYCO1 with a one-turn helix extension (DDAVFDIITDEELCQIQESGSSLPET; FYCO1 recombinant human sequence, prepared in lab)”, the “binding to LC3 compared with bindings of AnkB LIR to Atg8” value in test [7] is reported as “significantly weaker”.

For `CC[C@H](C)[C@H](NC(=O)[C@H](CCC(=O)O)NC(=O)[C@H](CCC(=O)O)NC(=O)[C@H](CO)NC(=O)[C@H](CO)NC(=O)[C@H](Cc1ccccc1)NC(=O)[C@H](CCC(=O)O)NC(=O)[C@@H](NC(=O)[C@H](Cc1c[nH]c2ccccc12)NC(=O)[C@H](CC(=O)O)NC(=O)[C@H](CC(=O)O)NC(=O)[C@H](CCC(=O)O)NC(=O)[C@@H]1CCCN1)[C@@H](C)O)C(=O)N[C@@H](CCCNC(=N)N)C(=O)N[C@@H](CCC(=O)O)C(=O)N[C@@H](C)C(=O)N[C@@H](CCCNC(=N)N)C(=O)N[C@@H](CCC(N)=O)C(=O)N[C@@H](C)C(=O)N[C@@H](C)C(=O)N[C@@H](C)C(=O)N[C@@H](CO)C(=O)N[C@@H](Cc1c[nH]cn1)C(=O)N[C@@H](C)C(=O)N1CCC[C@H]1C(=O)N[C@@H](CO)C(=O)O` [AnkG LIR], the “binding to LGG-1 (in words)” value in [8] is “binds strongly”. Also, the “weaker affinity towards LGG-2 than LGG-1” value in test [9] was “about 130 fold”. In test [1] (ITC), the “binding to GABARAP stronger than almost all reported bindings between LIR motifs and Atg8s” value is reported as around 1000 fold. The pKd (commonly the negative decadic logarithm of the Kd, by convention in mol/L) in test [1] (isothermal titration calorimetry (ITC)) is ~8.59 and 8.59. For the same compound, the “SQST-1::GFP aggregates” value in test [2] (Cherry fusion, hyp7 promoter, epidermis, embryonic to adult stages) is reported as “caused accumulation of SQST-1::GFP aggregates”; in [2] (Phyp7::mCherry::AnkG peptides, hypodermis, L4 larvae), “a large number of SQST-1::GFP aggregates accumulate”; in [2] (setting [11]), “accumulation of the SQST-1::GFP aggregates”. Besides, the “p62-positive puncta versus mCherry vector control” value in test [3] was “obviously increased”. Further, in test [3] (COS7 cells), the “p62 puncta increase compared with AnkB WT peptide” value is on record as “significantly lower”. In addition, the LC3-positive puncta number entry in [4] is on record as “only modestly reduced”. Besides, the GABARAP-positive puncta number entry in test [5] is given as “potently inhibited”. In test [10], the “Kd values of binding to the LC3s” value is reported as “hundreds to thousands”. The “binding to LC3 (in words)” value in test [6] is “much weaker affinity than to GABARAPs”.
